Results: paper PMC4076215, “Nickel(II) Complex of Polyhydroxybenzaldehyde N4-Thiosemicarbazone Exhibits Anti-Inflammatory Activity by Inhibiting NF-κB Transactivation” (PLoS ONE, 2014)
Values after ≈ are worked out from the molar mass of the structure shown.

Assays:
ORAC antioxidant assay = format: physicochemical
Method: ORAC assay was performed based on reported procedures with slight modifications. Chemicals used such as fluorescein sodium salt, AAPH (2,2′-Azobis(2-methylpropionamidine) dihydrochloride), quercetin dehydrate and trolox ((±)-6-Hydroxy-2,5,7,8-tetramethylchromane-2-carboxylic acid) were purchased from Sigma-Aldrich. Compounds were diluted to a final concentration of 100 µg/ml, with total reaction volume of 200 µl. The assay was performed in a 96-well black microplate, with 25 µl of samples, standard (trolox), blank (solvent/PBS) or positive control (quercetin). Subsequently, 150 µl of working fluorescein solution was added to each well. The plate was incubated at 37°C for at least 5 min. Then, 25 µl of AAPH working solution was then added to the wells to make a total volume of 200 µl. […] Data were collected every 2 min for a duration of 2 h, and were analyzed by calculating the differences of area under fluorescence decay curve (AUC) of samples and blank. The values were expressed as Trolox equivalent (TE).
ROS may amplify inflammatory responses via up-regulation or activation of certain genes/transcription factors, such as NF-κB. […] Therefore, we conducted ORAC assays to investigate the antioxidant capacity of complex 5. The ORAC assay uses peroxyl radical as pro-oxidant and the antioxidant activity is quantified via area under curve (AUC). We included quercetin, a known antioxidant, as a positive control.

RAW264.7 cells = test: Cell proliferation (MTT) assay, RAW264.7; settings: for IC50 (cell viability, MTT): RAW264.7 cells, 48 h treatment; for IC50: Mus musculus, RAW264.7, 48 h, read-out: IC50 (cell viability, MTT)
Method: (§1) A total number of 1.0×10^4 cells per well were seeded into a 96-well plate and incubated overnight at 37°C in 5% CO2. The next day, the cells were treated with a two-fold serial dilution of compounds. MTT assays were performed as described [27]. After 48 h, (4,5-dimethylthiazol-2-yl-2,5-diphenyltetrazoliumbromide) was added at 2 mg/ml. After 3 h of incubation at 37°C in 5% CO2, DMSO was added to dissolve the formazan crystals. The plates were then read in Chameleon multitechnology microplate reader (Hidex, Turku, Finland) at 570 nm absorbance. The ratio of the absorbance of treated cells to the absorbance of DMSO-treated control cells was determined as percentage cell viability.
(§2) To examine whether synthesized Ni(II) thiosemicarbazone ligands or Ni(II)-phosphine complexes were cytotoxic, we treated RAW264.7 (leukemic monocyte macrophage) and HeLa S3 (cervical adenocarcinoma) cells with these compounds for 48 h. The cell viability was determined with MTT assays [33].

HeLa S3 cells = test: Cell proliferation (MTT) assay, HeLa S3; settings: for IC50 (cell viability, MTT): HeLa S3 cells, 48 h treatment; for IC50: Homo sapiens, HeLa S3, 48 h, read-out: IC50 (cell viability, MTT)
Method: as §1, §2

[1] = system: carrageenan-induced paw edema; test: Carrageenan-induced paw edema mouse model; format: in vivo, C57BL/6 mice; settings: 2.0 mg/kg i.p., 1 h after carrageenan; control 7.3±0.8 mm
Method: Male C57BL/6 mice at age 8–12 weeks old were from Jackson Laboratories, USA. Mice were administrated intraperitoneally (i.p.) with two different doses of complex 5 (2.5 mg/kg and 5 mg/kg). Negative control groups were i.p. injected with 200 µl of vehicle (50% v/v ethanol). A standard drug 2 mg/kg dexamethasone (Sigma) was included in the study. After 1 h, paw edema was induced by injecting 50 µl of 1% carrageenan (Sigma) through the plantar tissue at the right hind paw of each mouse. The thickness of right paw of each mouse was measured at 1, 3 and 5 h after carrageenan was administered. Four animals per group were tested (n = 4). Quantification of right hind paw thickness were analyzed for statistical significance using Student's t-test. Animals were housed in individually ventilated cages in specific pathogen free facility, Animal Experimental Unit, University of Malaya. All efforts were made to minimize animal suffering and the number of animals used. At the end of the experiment, mice were euthanized by CO2 asphyxiation. Animal work was approved by the Faculty of Medicine Animal Care and Use Committee (FOMIACUC) at University of Malaya and reported according to ARRIVE guidelines.
To test the in vivo inhibitory effect of complex 5 on inflammation, we administrated two doses of complex 5 (2.5 mg/kg and 5.0 mg/kg) into C57BL/6 wild type mice through i.p. injection. For a positive control, we performed i.p. injection of 2.0 mg/kg dexamethasone into the mice. After 1 h, paw edema in the mice was induced by injecting 1% carrageenan to the right hind paw. The paw sizes were measured at 1, 3 and 5 h after edema induction. The edema formation at the mice paw was due to inflammatory response causing the accumulation of histamine, serotonin, prostaglandin and other secreted inflammatory mediators.
Male C57BL/6 mice at age of 8-12 weeks old were non-injected or injected i.p. with 2.5 mg/kg or 5.0 mg/kg complex 5, whereas for positive controls, mice were injected i.p. with 2.0 mg/kg dexamethasone. After 1 h, acute inflammation was induced in the right hind paw of each mice by injecting 50 µl of carrageenan. The size of the paw were measured after (A) 1 h or, (B) 1, 3 and 5 h post carrageenan injection. Shown were mean ±SD (n = 4). Statistical analysis was performed with Student's t-test.

[2] = system: NF-κB p65 nuclear translocation; test: NF-κB p65 immunofluorescence staining, LPS-stimulated RAW264.7; format: cell-based; settings: RAW264.7, 25 µg/ml pre-treatment 4 h, LPS 1 h
Method: NF-κB Activation Kits (Thermo Scientific) were used as previously described. Cells were pretreated with compounds for 4 h before being stimulated with lipopolysaccharide (LPS) ortumour necrosis factor α (TNFα) for 1 h. Cells were then fixed and permeabilized before probing with NF-κB p65 antibody for 1 h. Staining solution (containing DyLight 488 Goat Anti-Rabbit and Hoechst dye) was then added and incubated for 1 h. The plate with stained cells was evaluated using a Cellomics ArrayScan HCS Reader (Cellomics, PA, USA). Data were captured, extracted and analyzed with ArrayScan II Data Acquisition and Data Viewer version 3.0 (Cellomics).
NF-κB acts as a central mediator of inflammatory responses and compounds that inhibit NF-κB activation are potential anti-inflammatory agents. To evaluate this, we performed immunofluorescence staining of NF-κB p65. […] In response to LPS stimulation, NF-κB p65 translocated from cytoplasm into the nucleus, implying NF-κB activation (Figure 3). […] Moreover, we observed that complex 6–8 required higher concentration (>50 µg/ml) to elicit similar inhibitory effect (data not shown).
Figure 3 Effect of N4-substituteted thiosemicarbazone complexes on LPS-induced NF-κB nuclear transloction in RAW264.7 macrophage cells. Staining of Hoechst (nucleus) and NF-κB in RAW264.7 cells. […]

IC50 (HeLa S3 cells) [µg/mL]	SMILES	Antioxidant capacity, Trolox equivalent (ORAC antioxidant assay) [µM TE per 100 µM]	IC50 (cell viability, MTT) (RAW264.7 cells) [µg/mL]	IC50 (cell viability, MTT) (HeLa S3 cells) [µg/mL]	Paw size [1] [mm]	Inhibition of LPS-mediated NF-κB p65 nuclear translocation [2]	IC50 (RAW264.7 cells) [µg/mL]
–	O=c1c(O)c(-c2ccc(O)c(O)c2)oc2cc(O)cc(O)c12 [Quercetin, quercetin dehydrate, reference compound]	24.41±0.35	–	–	–	–	–
–	CNC(=S)NN=Cc1cccc(O)c1[O-].[Cl-].[Ni+2].c1ccc(P(c2ccccc2)c2ccccc2)cc1 [complex 6, (6-Hydroxy-2-{[2-(N-methylcarbamothiolyl)hydrazin-1-ylidene-[kappa]2N1,S]methyl}phenolato-[kappa]O1)(triphenylphosphane-[kappa]P)nickel(II) chloride]	15.65±0.89	37.73 ± 3.62	77.55 ± 1.56	–	–	–
–	Oc1cccc2c1[O][Ni-2]1([P+](c3ccccc3)(c3ccccc3)c3ccccc3)[S]C(Nc3ccccc3)=N[N+]1=C2 (stereo not drawn) [complex 7]	9.37±1.14	42.44 ± 4.17	>100	–	–	–
–	CCNC1=N[N+]2=Cc3cccc(O)c3[O][Ni-2]2([P+](c2ccccc2)(c2ccccc2)c2ccccc2)[S]1 (stereo not drawn) [complex 8]	13.34±1.49	56.31 ± 3.86	>100	–	–	–
–	C[C@@H]1C[C@H]2[C@@H]3CCC4=CC(=O)C=C[C@]4(C)[C@@]3(F)[C@@H](O)C[C@]2(C)[C@@]1(O)C(=O)CO [dexamethasone, reference compound]	–	–	–	4.6±0.4	–	–
> 100	NC(=S)N/N=C/c1cccc(O)c1O [ligand 1]	5.18±0.05	–	–	–	did not affect NF-κB translocation	22.8 ± 1.67 (≈ 108 µM)
> 100	CNC(=S)N/N=C/c1cccc(O)c1O [ligand 2]	8.23±0.43	–	–	–	–	27.8 ± 0.96 (≈ 124 µM)
> 100	Oc1cccc(/C=N/NC(=S)Nc2ccccc2)c1O [ligand 3]	9.71±0.77	–	–	–	–	31.5 ± 1.82 (≈ 110 µM)
87.2 ± 1.81 (≈ 364 µM)	CCNC(=S)N/N=C/c1cccc(O)c1O [ligand 4]	7.54±1.61	–	–	–	–	19.4 ± 1.07 (≈ 80.9 µM)
